Laboratory results: PubChem BioAssay (NCI)
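Step 1: Grow cells in 96-well plates. Step 2: Expose to compound for 48 hours at 5 concentrations. Step 3: Interpolate endpoints linearly; if unreached, use highest concentration. TGI: concentration producing complete growth inhibition.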

Key:
Assay in all cases: growth of human tumour cells (NCI), 48 h
[1] = tested on: RXF 393 renal
[2] = tested on: SK-MEL-2 melanoma
[3] = tested on: SK-MEL-28 melanoma
[4] = tested on: K-562 leukemia
[5] = tested on: PC-3 prostate
[6] = tested on: A498 renal
[7] = tested on: HCC-2998 colon
[8] = tested on: BT-549 breast
[9] = tested on: OVCAR-5 ovarian
[10] = tested on: A549 NSCLC
[11] = tested on: HS 578T breast
[12] = tested on: SW-620 colon
[13] = tested on: OVCAR-8 ovarian
[14] = tested on: KM12 colon
[15] = tested on: SK-OV-3 ovarian
[16] = tested on: CAKI-1 renal
[17] = tested on: SNB-19 CNS
[18] = tested on: SN12C renal
[19] = tested on: MDA-MB-231 breast
[20] = tested on: TK-10 renal
[21] = tested on: U251 CNS
[22] = tested on: HCT-116 colon
[23] = tested on: IGROV1 ovarian
[24] = tested on: UACC-257 melanoma
[25] = tested on: MDA-N
[26] = tested on: NCI-H226 lung
[27] = tested on: UO-31 renal
[28] = tested on: NCI-H460 lung
[29] = tested on: HCT-15 colon
[30] = tested on: SF-268 CNS
[31] = tested on: HOP-92 NSCLC
[32] = tested on: SF-295 CNS
[33] = tested on: OVCAR-3 ovarian
[34] = tested on: NCI-H23 lung
[35] = tested on: SK-MEL-5 melanoma
[36] = tested on: SR leukemia
[37] = tested on: SNB-75 CNS
[38] = tested on: CCRF-CEM leukemia
[39] = tested on: T-47D breast
[40] = tested on: M14 melanoma
[41] = tested on: NCI/ADR-RES ovarian
[42] = tested on: SF-539 CNS
[43] = tested on: ACHN renal
[44] = tested on: OVCAR-4 ovarian
[45] = tested on: 786-0 renal
[46] = tested on: COLO 205 colon
[47] = tested on: MDA-MB-435
[48] = tested on: EKVX NSCLC
[49] = tested on: MOLT-4 leukemia
[50] = tested on: DU-145 prostate
[51] = tested on: LOX IMVI melanoma
[52] = tested on: HT29 colon
[53] = tested on: HOP-62 NSCLC
[54] = tested on: UACC-62 melanoma
[55] = tested on: MALME-3M melanoma
[56] = tested on: RPMI-8226 leukemia
[57] = tested on: NCI-H522 lung
[58] = tested on: MCF7 breast
[59] = tested on: HL-60(TB) leukemia

## CCCC(=O)N(C(=O)CCC)C1=C(Cl)C(=O)c2ccccc2C1=O
[1]
  TGI: 7.1 µM
[2]
  TGI: 24 µM
[3]
  TGI: 13.6 µM
[4]
  TGI: 5.01 µM
[5]
  TGI: 40 µM
[6]
  TGI: 37.6 µM
[7]
  TGI: 16.4 µM
[8]
  TGI: 10.3 µM
[9]
  TGI: 26 µM
[10]
  TGI: > 52.8 µM
[11]
  TGI: 79.7 µM
[12]
  TGI: 14.5 µM
[13]
  TGI: 25.3 µM
[14]
  TGI: 15.5 µM
[15]
  TGI: 34.4 µM
[16]
  TGI: 5.79 µM
[17]
  TGI: 24.4 µM
[18]
  TGI: 52.5 µM
[19]
  TGI: > 67.5 µM
[20]
  TGI: 14.8 µM
[21]
  TGI: 23.5 µM
[22]
  TGI: > 33.1 µM
[23]
  TGI: 20.9 µM
[24]
  TGI: 11.6 µM
[25]
  TGI: 28.2 µM
[26]
  TGI: 23.8 µM
[27]
  TGI: 4.75 µM
[28]
  TGI: 29.3 µM
[29]
  TGI: 14.2 µM
[30]
  TGI: > 45.2 µM
[31]
  TGI: 45 µM
[32]
  TGI: 33.3 µM
[33]
  TGI: 11.8 µM
[34]
  TGI: 15.8 µM
[35]
  TGI: > 23.9 µM
[36]
  TGI: > 54.1 µM
[37]
  TGI: 15.3 µM
[38]
  TGI: > 26.7 µM
[39]
  TGI: > 100 µM
[40]
  TGI: 25.8 µM
[41]
  TGI: 61.3 µM
[42]
  TGI: 15.4 µM
[43]
  TGI: 2.71 µM
[44]
  TGI: 82.8 µM
[45]
  TGI: 30.8 µM
[46]
  TGI: > 23.3 µM
[47]
  TGI: 21.4 µM
[48]
  TGI: > 42.5 µM
[49]
  TGI: 10.7 µM
[50]
  TGI: 45.1 µM
[51]
  TGI: 17.8 µM
[52]
  TGI: 31.2 µM
[53]
  TGI: 24.1 µM
[54]
  TGI: 11.1 µM

## CC(C)=CC(O)C(C(O)CCC1(C)OCCO1)S(=O)(=O)c1ccccc1 (stereo unspecified)
[1]
  TGI: > 100 µM
[2]
  TGI: > 100 µM
[3]
  TGI: > 100 µM
[5]
  TGI: > 100 µM
[6]
  TGI: > 100 µM
[7]
  TGI: > 100 µM
[8]
  TGI: > 100 µM
[9]
  TGI: > 100 µM
[10]
  TGI: > 100 µM
[55]
  TGI: > 100 µM
[12]
  TGI: > 100 µM
[13]
  TGI: > 100 µM
[14]
  TGI: > 100 µM
[15]
  TGI: > 100 µM
[16]
  TGI: > 100 µM
[17]
  TGI: > 100 µM
[18]
  TGI: > 100 µM
[19]
  TGI: > 100 µM
[20]
  TGI: > 100 µM
[21]
  TGI: > 100 µM
[22]
  TGI: > 100 µM
[23]
  TGI: > 100 µM
[24]
  TGI: > 100 µM
[25]
  TGI: > 100 µM
[56]
  TGI: > 100 µM
[26]
  TGI: > 100 µM
[27]
  TGI: > 100 µM
[28]
  TGI: > 100 µM
[29]
  TGI: > 100 µM
[57]
  TGI: > 100 µM
[30]
  TGI: > 100 µM
[58]
  TGI: > 100 µM
[32]
  TGI: > 100 µM
[33]
  TGI: > 100 µM
[34]
  TGI: > 100 µM
[37]
  TGI: > 100 µM
[38]
  TGI: > 100 µM
[39]
  TGI: > 100 µM
[40]
  TGI: > 100 µM
[41]
  TGI: > 100 µM
[42]
  TGI: > 100 µM
[43]
  TGI: > 100 µM
[44]
  TGI: > 100 µM
[45]
  TGI: > 100 µM
[46]
  TGI: > 100 µM
[47]
  TGI: > 100 µM
[48]
  TGI: > 100 µM
[51]
  TGI: > 100 µM
[53]
  TGI: > 100 µM

## CCC1=C(C)C(=O)N/C1=C\c1[nH]c(C)c([C@H](C)CCN)c1C
[2]
  TGI: 35.1 µM
[3]
  TGI: 32.5 µM
[4]
  TGI: > 100 µM
[59]
  TGI: 42.4 µM
[6]
  TGI: 33.4 µM
[8]
  TGI: 29.9 µM
[9]
  TGI: 31.7 µM
[10]
  TGI: 34.3 µM
[55]
  TGI: 32.8 µM
[11]
  TGI: 28.6 µM
[12]
  TGI: 35.1 µM
[13]
  TGI: 28.8 µM
[14]
  TGI: 30.7 µM
[15]
  TGI: 31.5 µM
[16]
  TGI: 32.3 µM
[18]
  TGI: 29.8 µM
[19]
  TGI: 32.7 µM
[21]
  TGI: 28.9 µM
[22]
  TGI: 27.6 µM
[23]
  TGI: 32 µM
[25]
  TGI: 29.1 µM
[56]
  TGI: > 100 µM
[26]
  TGI: 31.8 µM
[27]
  TGI: 29.2 µM
[28]
  TGI: 35.5 µM
[29]
  TGI: 28.6 µM
[57]
  TGI: 24.4 µM
[30]
  TGI: 30.4 µM
[58]
  TGI: 32.9 µM
[31]
  TGI: 28.6 µM
[32]
  TGI: 31.5 µM
[33]
  TGI: 30.1 µM
[34]
  TGI: 26.8 µM
[35]
  TGI: 31.4 µM
[36]
  TGI: > 100 µM
[37]
  TGI: 22.6 µM
[38]
  TGI: > 100 µM
[39]
  TGI: 26.2 µM
[40]
  TGI: 30.4 µM
[41]
  TGI: 49 µM
[42]
  TGI: 15.5 µM
[43]
  TGI: 32.9 µM
[44]
  TGI: 26.7 µM
[45]
  TGI: 28.9 µM
[46]
  TGI: 31.1 µM
[47]
  TGI: 29.6 µM
[48]
  TGI: 28.1 µM
[49]
  TGI: > 100 µM
[50]
  TGI: 32.5 µM
[51]
  TGI: 28.7 µM
[52]
  TGI: 29.6 µM
[53]
  TGI: 32.7 µM
[54]
  TGI: 31.5 µM
